Key:
B cell = details: compared to T cells; cited from earlier work
PTP1B = biological target: T1, PTP1B (Homo sapiens, UniProt P18031); assay: Inhibition of classical PTP1B (truncated, first 321 amino acids) with p-nitrophenyl phosphate substrate; type: biochemical; details: p-nitrophenyl phosphate 0.16 to 10 mM; 100 mM sodium acetate pH 5.5; 25° C., 60 minutes
T1 construct: a truncated form of PTP1B (corresponding to the first 321 amino acids); made in house; host or cells: E. coli
T1 sequence (P18031 1-321): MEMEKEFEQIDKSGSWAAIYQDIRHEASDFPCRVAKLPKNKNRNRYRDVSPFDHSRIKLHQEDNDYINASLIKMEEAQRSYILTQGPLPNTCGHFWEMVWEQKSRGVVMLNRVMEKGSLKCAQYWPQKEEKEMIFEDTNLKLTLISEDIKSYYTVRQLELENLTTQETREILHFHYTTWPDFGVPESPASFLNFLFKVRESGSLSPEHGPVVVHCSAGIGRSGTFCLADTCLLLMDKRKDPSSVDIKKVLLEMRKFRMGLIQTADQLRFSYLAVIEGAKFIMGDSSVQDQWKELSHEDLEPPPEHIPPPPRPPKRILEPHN
Method: The assay conditions are as follows. […] The buffer used was 100 mM sodium acetate pH 5.5, 50 mM sodium chloride, 0.1% (w/v) bovine serum albumin and 5 mM dithiothreitol (total volume […]). The reaction was started by addition of the enzyme and carried out in microtiter plates at 25° C. for 60 minutes. The reactions are stopped by addition of NaOH. […] Inhibition is expressed as Ki values in μM.

[1] = system: osteoblastic acid phosphatase; details: mitogenic concentrations of fluoride; cited from earlier work
[2] = osteoporotics; cited from earlier work
osteoblast = details: cited from earlier work
[3] = system: osteoblast-like cell line UMR106; details: cited from earlier work; for stimulation of cell growth relative to vanadate: compared with vanadate
adipocytes = details: cited from earlier work
skeletal muscle = details: cited from earlier work
platelets = details: cited from earlier work
SSTR1 = SSTR1 stably expressed in CHO-K1 cells; pertussis toxin-sensitive; cited from earlier work

Cc1occc(=O)c1[O-].Cc1occc(=O)c1[O-].[O]=[V+2] [BMLOV]
B cell selective apoptosis (B cell): apparent B cell selective apoptosis

O=C(O)C(=O)Nc1cc2ccccc2cc1C(=O)O [Example 2, 3-(Oxalyl-amino)naphthalene-2-carboxylic acid]
Ki (PTP1B): 9.9 µM

F [fluoride]
sensitivity of osteoblastic acid phosphatase [1]: highly sensitive
spinal bone density [2]: increase spinal bone density in osteoporotics

[O]=[V]([O-])([O-])[O-] [orthovanadate]
osteoblast proliferation and matrix formation (osteoblast): appears to enhance osteoblast proliferation and matrix formation

[O]=[V]([O-])([O-])[O-] [vanadate]
cell differentiation as measured by cell alkaline phosphatase activity ([3]; cell alkaline phosphatase activity): able to regulate the cell differentiation
growth of UMR106 cells [3]: increased the growth

O=S(=O)([O-])[O-].[O]=[V+2] [vanadyl]
growth of UMR106 cells [3]: increased the growth
stimulation of cell growth relative to vanadate [3]: stronger stimulators of cell growth than vanadate

pervanadate
insulin response when added to whole cells (adipocytes): almost full insulin response
insulin response when added to whole cells (skeletal muscle): almost full insulin response
tyrosine phosphorylation, secretion and aggregation of platelets (platelets): significant increase in tyrosine phosphorylation, secretion and aggregation
growth of UMR106 cells [3]: increased the growth
stimulation of cell growth relative to vanadate [3]: stronger stimulators of cell growth than vanadate

somatostatin
stimulation of PTPase activity (SSTR1): can stimulate PTPase activity

— US6225329A, “Modulators of protein tyrosine phosphatases (PTPases)” (Novo Nordisk A/S, priority 1998, dated 2001)
